Test results taken from patent publication US20140294849A1, “COMPOSITIONS AND USES” (GLAXOSMITHKLINE BIOLOGICALS SA, priority 2011, published 2014).

How the values were obtained:
[1] = system: Lineage-CD11b+ monocytes in peripheral blood; test: Monocyte analysis and counting after adjuvant injection in mice; assay type: in vivo, C57BL/6 mice; conditions: Example 12, single i.m. injection
Method: (§1) 24-Hours after injection of the TLR adjuvants, peripheral blood was drawn from C57BL/6 mice via cardiac puncture with lithium-heparin as anticoagulant. Red blood cell lysis was performed twice on pooled blood with Ammonium Chloride-based Buffer (Sigma, Steinheim, Germany) and cells were counted with the EasyCount™ System (Immunicon). […] Cells were finally washed three times and fixed for 15 min. with a 2% paraformaldehyde solution in PBS. Fluorescence minus one (FMO) controls were always included in the assays for fluorescent compensation setting. Samples were acquired on a flow cytometer (BD FACSCanto II) and data analyzed with the FACSDiva software (BD Biosciences). Monocytes were identified by their Side/Forward scatter properties and gated as CD3-/CD45R/B220-/Ly-6G-/NK1.1-(Lineage-)/CD11b+ cells. CD11b+ monocyte frequency was reported as a percentage of the total cells excluding debris.
as §1, with “24 hours” for “24-Hours”, “each immunomodulator,” for “the TLR adjuvants,”, “min” for “min.”, “monocytes” for “monocyte”
Cells were finally washed twice and fixed for 15 min. with a 2% paraformaldehyde solution in PBS. FMOs controls were always included in the assays. Samples were acquired on a flow cytometer (BD FACSCanto II) and data analyzed with the FACSDiva software (BD Biosciences). Monocytes were identified and counted by their Side/Forward scatter properties, excluding debris and gated as CD3-/CD45R/B220-/Ly-6G-/NK1.1-(Lineage-)/CD11 b+ cells.

[2] = system: CD11b+ peripheral blood monocytes; test: Ex vivo uptake assay of Aβ1-42; assay type: cell-based, C57BL/6 mice; conditions: Example 14; AS01B mouse full dose (5 ug per mouse) or CRX601 2 μg, i.m.
Method: Preparation of cells: Peripheral blood was drawn from C57BL/6 mice via cardiac puncture with lithium-heparin as anticoagulant, 24-hours after injection of the adjuvants used herein. Red blood cell lysis was performed twice on pooled blood with Ammonium Chloride-based Buffer (Sigma, Steinheim, Germany) and cells were counted with the EasyCount™ System (Immunicon). […]
FACS analysis: cells were harvested after incubation with fluorescent Aβ peptide with Trypsin/EDTA and cold PBS and washed three times. 500,000 cells were incubated in 96-well plate for 10 min. on ice in the presence of Rat anti-Mouse CD16/CD32 (clone 2.4G2—BD Fc Block™) and further stained for 30 min. with a combination of the following directly conjugated antibodies at their pre-determined optimal concentration: PE-Hamster anti-Mouse CD3 (clone 145-2C11), Rat anti-Mouse CD45R/B220 (clone RA3-6B2), Rat anti-Mouse Ly-6G (clone 1A8), Mouse anti-Mouse NK1.1 (clone PK136), APC-conjugated Rat anti-Mouse CD11b (clone M1/70), PE-Cy7-conjugated Hamster anti-Mouse CD11c (clone HL3), (all from BD PharMingen). […]
Samples were acquired on a flow cytometer (BD FACSCanto II) and data analyzed with the FACSDiva software (BD Biosciences). […]

SMILES: CCCCCCCCCCC[C@H](CC(=O)N[C@H]1[C@H](OC[C@H](NC(=O)C[C@@H](CCCCCCCCCCC)OCCCCCCCCCC)C(=O)O)O[C@H](CO)[C@@H](OP(=O)(O)O)[C@@H]1OC(=O)C[C@@H](CCCCCCCCCCC)OCCCCCCCCCC)OCCCCCCCCCC [CRX601]
- monocyte effect at 20 μg dose [1]: down modulated
- dose of maximum monocyte response ([1]; 0.2 to 20 ug/mouse): 10 µg
- dose enough to trigger an increase of the monocyte count ([1]; 24 hrs, compared to PBS): 1 µg
- ex vivo uptake of Aβ42 by monocytes compared to PBS group [2]: higher amount of Aβ42
